Assay results: patent US8361968B2 (Takeda Pharmaceutical Company Limited, priority 2002, dated 2013)
Square brackets hold non-standard residues; d marks the D form. Peptide text beside a SMILES is read from it. * marks the point of attachment. Acetyl(2-(4-imidazolyl)) = O=C(Cc1c[nH]cn1)*; 2Nal = N[C@@H](Cc1ccc2ccccc2c1)C(=O)O; Arg(Me) = CNC(=N)NCCC[C@H](N)C(=O)O; d4Pal = N[C@H](Cc1ccncc1)C(=O)O; X3 = NC(=S)[C@H](Cc1ccccc1)N*; azaGly = NNC(=O)O

biological target: hOT7T175 (Homo sapiens, UniProt Q969F8, L364H); experiment: Intracellular Ca ion level-increasing activity using FLIPR in hOT7T175/CHO; format: cell-based; set-up: expressed in transfected cells; host or cells: CHO/dhfr- cells, obtained from ATCC; settings: relative, Metastin (1-54) = 1
Experimental: Assay for Intracellular Ca Ion Level-Increasing Activity Using Flipr
In accordance with the method described in JPA 2000-312590, the intracellular Ca ion level-increasing activity was measured using FLIPR.
The stable expression cell line hOT7T175 was acquired by transduction of expression plasmid pAK-rOT175 for animal cells into CHO/dhff cells, using CellPhect Transfection Kit (Amersham Pharmacia Biotech, Inc.). First, 240 μL of Buffer A (attached to CellPhect Transfection Kit) was added to 9.6 μg of plasmid DNA dissolved in 240 μl of distilled water, followed by stirring. After settling the mixture for 10 minutes, 480 μL of Buffer B (attached to CellPhect Transfection Kit) was added to the mixture, which was vigorously stirred to form DNA-containing liposomes. Then, 4×10^5 CHO/dhff cells (obtained from ATCC) were inoculated on a 60 mm Petri dish. […] After culturing the cells at 37° C. for 6 hours in 5% carbon dioxide gas, the cells were washed twice with serum-free Ham's F-12 medium and 3 ml of 15% glycerol was added to the cells in the Petri dish to treat for 2 minutes. The cells were again washed twice with serum-free Ham's F-12 medium followed by incubation in Ham's F-12 medium supplemented with 10% fetal bovine serum at 37° C. for 15 hours in 5% carbon dioxide gas. The cells were dispersed by trypsin treatment and recovered from the Petri dish. The recovered cells were inoculated on a 6-well plate in 1.25×10^4 cells/well and incubation was initiated at 37° C. in Dulbecco's modified Eagle medium (DMEM) medium (Nissui Seiyaku Co., Ltd.) containing 10% dialyzed fetal bovine serum (JRH BIOSCIENCES, Inc.) under 5% carbon dioxide gas. […] The medium was exchanged on Days 1 and 2 to remove the cells died.
The intracellular Ca ion level-increasing activity of the synthetic peptide in hOT7T175/CHO was determined using FLIPR (Molecular Devices, Inc.).
hOT7T175/CHO was subcultured in DMEM supplemented with 10% dialyzed fetal bovine serum (hereinafter abbreviated as dFBS) and provided for the experiment (hereinafter abbreviated as 10% dFBS/DMEM). The hOT7T175/CHO was suspended in 10% dFBS-DMEM in 15×10^4 cells/ml. The suspension was inoculated on a 96-well plate for FLIPR (Black Plate Clear Bottom, Coster, Inc.) at 200 μL each (3.0×10^4 cells/200 μL/well), followed by incubation at 37° C. overnight in a 5% CO2 incubator (hereinafter simply referred to as the cell plate). Then, 21 ml of HANKS/HBSS (9.8 g of HANKS, 0.35 g of sodium hydrogencarbonate, 20 ml of 1M HEPES; after adjusting the pH to 7.4 with 1N sodium hydroxide, the mixture was sterilized by filtration), 210 μl of 250 mM Probenecid and […] of fetal bovine serum (FBS) were mixed (HANKS/HBSS-Probenecid-FBS).
Furthermore, 2 vials of Fluo3-AM (50 μug/vial) were dissolved in 21 μL of dimethylsulfoxide and 21 μL of 20% Pluronic acid. The resulting solution was added to and mixed with 10 ml of HANKS/HBSS-Probenecid-FBS described above. After the culture medium was removed, the mixture was dispensed onto the cell plate in 100 μL each/well, followed by incubation at 37° C. for an hour in a 5% CO2 incubator (pigment loading). The peptide was dissolved in dimethylsulfoxide in 1×10^−3 M. The peptide solution was diluted with HANKS/HBSS containing 2.5 mM Probenecid, 0.2% BSA and 0.1% CHAPS.

Chain of hOT7T175 (Q969F8 whole entry L364H): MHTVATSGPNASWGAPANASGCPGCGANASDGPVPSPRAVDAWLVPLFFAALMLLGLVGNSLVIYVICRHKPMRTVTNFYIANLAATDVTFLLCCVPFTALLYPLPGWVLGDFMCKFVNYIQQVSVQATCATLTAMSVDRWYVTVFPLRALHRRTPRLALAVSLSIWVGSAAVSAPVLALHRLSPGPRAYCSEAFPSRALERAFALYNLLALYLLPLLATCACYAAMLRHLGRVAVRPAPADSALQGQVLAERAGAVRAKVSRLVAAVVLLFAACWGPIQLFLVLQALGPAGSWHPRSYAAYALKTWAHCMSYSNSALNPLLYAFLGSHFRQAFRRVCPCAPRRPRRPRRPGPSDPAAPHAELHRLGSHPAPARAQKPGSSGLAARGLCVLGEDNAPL

In order of falling “Specific Activity (intracellular Ca ion level-increasing activity)” value:
1. CNC(=N)NCCC[C@H](NC(=O)[C@H](CC(C)C)NC(=O)CNC(=O)[C@H](Cc1ccccc1)NC(=O)[C@H](C)NC(=O)[C@H](CC(N)=O)NC(=O)[C@H](Cc1c[nH]c2ccccc12)NC(=O)[C@H](CC(N)=O)NC(=O)[C@H](N)Cc1ccc(O)cc1)C(=O)N[C@@H](Cc1ccccc1)C(N)=O [Compound No. 212] (H-[dY]NWNAFGL[Arg(Me)]F-NH2)  10
2. D-Tyr-D-Pya(4)-Asn-Ser-Phe-AzaGly-Leu-Arg(Me)-Trp-NH2 [Compound No. 385]  10
3. CNC(=N)NCCC[C@H](NC(=O)[C@H](CC(C)C)NC(=O)CNC(=O)[C@H](Cc1ccccc1)NC(=O)[C@@H](NC(=O)[C@H](CC(N)=O)NC(=O)[C@H](Cc1c[nH]c2ccccc12)NC(=O)[C@H](CC(N)=O)NC(=O)[C@H](N)Cc1ccc(O)cc1)[C@@H](C)O)C(=O)N[C@@H](Cc1ccccc1)C(N)=O [Compound No. 211] (H-[dY]NWNTFGL[Arg(Me)]F-NH2; N-terminus assumed)  10
4. CC(C)C[C@H](NC(=O)CNC(=O)[C@H](Cc1ccccc1)NC(=O)[C@H](CO)NC(=O)[C@H](CC(N)=O)NC(=O)[C@H](Cc1c[nH]c2ccccc12)NC(=O)[C@H](CC(N)=O)NC(=O)[C@@H](N)Cc1ccc(O)cc1)C(=O)N[C@@H](CCCNC(=N)N)C(=O)N[C@@H](Cc1ccccc1)C(N)=S [Compound No. 128] (H-YNWNSFGLR-X3)  10
5. CC(=O)N[C@@H](Cc1ccc(O)cc1)C(=O)N[C@@H](CC(N)=O)C(=O)N[C@@H](Cc1c[nH]c2ccccc12)C(=O)N[C@@H](CC(N)=O)C(=O)N[C@@H](CO)C(=O)N[C@@H](Cc1ccccc1)C(=O)NCC(=O)N[C@@H](CC(C)C)C(=O)N[C@@H](CCCNC(=N)N)C(=O)N[C@@H](Cc1ccccc1)C(N)=O [Compound No. 30]  10
6. 3-Pyridylpropionyl-Asn-Ser-Phe-AzaGly-Leu-Arg(Me)-Trp-NH2 [Compound No. 386]  7
7. CC(C)C[C@H](NC(=O)CNC(=O)[C@H](Cc1ccc2ccccc2c1)NC(=O)[C@H](CO)NC(=O)[C@H](CC(N)=O)NC(=O)[C@H](Cc1c[nH]c2ccccc12)NC(=O)[C@H](CC(N)=O)NC(=O)[C@@H](N)Cc1ccc(O)cc1)C(=O)N[C@@H](CCCNC(=N)N)C(=O)N[C@@H](Cc1ccccc1)C(N)=O [Compound No. 152, Tyr-Asn-Trp-Asn-Ser-Nal(2)-Gly-Leu-Arg-Phe-NH2] (H-YNWNS[2Nal]GLRF-NH2)  5
8. CNC(=N)NCCC[C@H](NC(=O)[C@H](CC(C)C)NC(=O)NNC(=O)[C@H](Cc1ccccc1)NC(=O)[C@@H](NC(=O)[C@H](CC(N)=O)NC(=O)[C@H](Cc1c[nH]c2ccccc12)NC(=O)[C@@H](CC(N)=O)NC(=O)[C@H](N)Cc1ccc(O)cc1)[C@@H](C)O)C(=O)N[C@@H](Cc1ccccc1)C(N)=O [Compound No. 298, D-Tyr-D-Asn-Trp-Asn-Thr-Phe-AzaGly-Leu-Arg(Me)-Phe-NH2] (H-[dY][dN]WNTF[azaGly]L[Arg(Me)]F-NH2)  5
9. CNC(=N)NCCC[C@H](NC(=O)[C@H](CC(C)C)NC(=O)[C@H](C)NC(=O)[C@H](Cc1ccccc1)NC(=O)[C@H](CO)NC(=O)[C@H](CC(N)=O)NC(=O)[C@H](Cc1c[nH]c2ccccc12)NC(=O)[C@H](CC(N)=O)NC(=O)[C@H](N)Cc1ccc(O)cc1)C(=O)N[C@@H](Cc1ccccc1)C(N)=O [Compound No. 204] (H-[dY]NWNSFAL[Arg(Me)]F-NH2)  5
10. CNC(=N)NCCC[C@H](NC(=O)[C@H](CC(C)C)NC(=O)NNC(=O)[C@H](Cc1ccccc1)NC(=O)[C@H](CO)NC(=O)[C@H](CC(N)=O)NC(=O)[C@@H](Cc1ccncc1)NC(=O)[C@H](CC(N)=O)NC(=O)[C@H](N)Cc1ccc(O)cc1)C(=O)N[C@@H](Cc1ccccc1)C(N)=O [Compound No. 302, D-Tyr-Asn-D-Pya(4)-Asn-Ser-Phe-AzaGly-Leu-Arg(Me)-Phe-NH2] (H-[dY]N[d4Pal]NSF[azaGly]L[Arg(Me)]F-NH2)  2
11. CNC(=N)NCCC[C@H](NC(=O)[C@H](CC(C)C)NC(=O)NNC(=O)[C@H](Cc1ccccc1)NC(=O)[C@H](CO)NC(=O)[C@H](CC(N)=O)NC(=O)[C@@H](Cc1c[nH]c2ccccc12)NC(=O)[C@H](N)Cc1ccc(O)cc1)C(=O)N[C@@H](Cc1ccccc1)C(N)=O [Compound No. 242, D-Tyr-D-Trp-Asn-Ser-Phe-AzaGly-Leu-Arg(Me)-Phe-NH2] (H-[dY][dW]NSF[azaGly]L[Arg(Me)]F-NH2)  2
12. CC(C)C[C@H](NC(=O)CNC(=O)[C@H](Cc1ccccc1)NC(=O)[C@H](CO)NC(=O)[C@H](CC(N)=O)NC(=O)[C@H](Cc1c[nH]c2ccccc12)NC(=O)[C@H](CC(N)=O)NC(=O)[C@H](Cc1ccc(O)cc1)NC(=O)OCC1c2ccccc2-c2ccccc21)C(=O)N[C@@H](CCCNC(=N)N)C(=O)N[C@@H](Cc1ccccc1)C(N)=O [Compound No. 31]  2
13. CCNC(=N)NCCC[C@H](NC(=O)[C@H](CC(C)C)NC(=O)CNC(=O)[C@H](Cc1ccccc1)NC(=O)[C@H](CO)NC(=O)[C@H](CC(N)=O)NC(=O)[C@H](Cc1c[nH]c2ccccc12)NC(=O)[C@H](CC(N)=O)NC(=O)[C@H](N)Cc1ccc(O)cc1)C(=O)N[C@@H](Cc1ccccc1)C(N)=O [Compound No. 192]  1
14. CNC(=N)NCCC[C@H](NC(=O)[C@H](CC(C)C)NC(=O)CNC(=O)[C@H](Cc1ccccc1)NC(=O)[C@H](CO)NC(=O)[C@H](C)NC(=O)[C@H](Cc1c[nH]c2ccccc12)NC(=O)[C@H](CC(N)=O)NC(=O)[C@H](N)Cc1ccc(O)cc1)C(=O)N[C@@H](Cc1ccccc1)C(N)=O [Compound No. 210] (H-[dY]NWASFGL[Arg(Me)]F-NH2)  1
15. CNC(=N)NCCC[C@H](NC(=O)[C@H](CC(C)C)NC(=O)CNC(=O)[C@H](Cc1ccccc1)NC(=O)[C@H](CO)NC(=O)[C@H](CC(N)=O)NC(=O)[C@@H](Cc1c[nH]c2ccccc12)NC(=O)[C@@H](CC(N)=O)NC(=O)[C@H](N)Cc1ccc(O)cc1)C(=O)N[C@@H](Cc1ccccc1)C(N)=O [Compound No. 231, D-Tyr-D-Asn-D-Trp-Asn-Ser-Phe-Gly-Leu-Arg(Me)-Phe-NH2]  1
16. CNC(=N)NCCC[C@H](NC(=O)[C@H](CC(C)C)NC(=O)NNC(=O)[C@H](Cc1ccccc1)NC(=O)[C@H](CO)NC(=O)[C@H](CC(N)=O)NC(=O)[C@H](Cc1ccccc1)NC(=O)[C@H](CC(N)=O)NC(=O)[C@H](N)Cc1ccc(O)cc1)C(=O)N[C@@H](Cc1ccccc1)C(N)=O [Compound No. 244, D-Tyr-Asn-Phe-Asn-Ser-Phe-AzaGly-Leu-Arg(Me)-Phe-NH2] (H-[dY]NFNSF[azaGly]L[Arg(Me)]F-NH2; N-terminus assumed)  1
17. CNC(=N)NCCC[C@H](NC(=O)[C@H](CC(C)C)NC(=O)NNC(=O)[C@H](Cc1ccccc1)NC(=O)[C@H](CO)NC(=O)[C@H](CC(N)=O)NC(=O)Cc1c[nH]cn1)C(=O)N[C@@H](Cc1ccccc1)C(N)=O [Compound No. 323, 4-Imidazoleacetyl-Asn-Ser-Phe-AzaGly-Leu-Arg(Me)-Phe-NH2] ({Acetyl(2-(4-imidazolyl))}-NSF[azaGly]L[Arg(Me)]F-NH2)  1
